Experiments:
Format in all cases: in vivo
[1] = test system: redroot pigweed (Amaranthus retroflexus, AMARE); assay: Pre-emerge test, greenhouse herbicide activity screening; settings: pre-emerge, rated 14 days after application, 0 = no damage, 100 = complete death
Outline: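 Visual ratings on a 0-100 scale (0 no damage, 100 all plants dead) were taken at 14 days after treatment. Rates of 15-1000 g ai/ha in acetone, 187 l/ha, were sprayed onto soil one day after planting (pre-emerge) or onto 2-3 leaf plants with 0.25% v/v surfactant (post-emerge).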

[2] = test system: barnyardgrass (Echinochloa crus-galli, ECHCG); assay: as above; settings: pre-emerge, rated 14 days after application, 0 = no damage, 100 = complete death
Outline: (§1)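 Compounds in acetone were track-sprayed at 15-1000 g ai/ha (187 l/ha) on sandy loam pots: pre-emerge one day after seeding, post-emerge at 2-3 leaf stage with 0.25% v/v non-ionic surfactant. Phytotoxicity was rated 14 days later on a 0 (no damage) to 100 (complete death) scale.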

[3] = test system: green foxtail (Setaria viridis, SETVI); assay: as above; settings: pre-emerge, rated 14 days after application, 0 = no damage, 100 = complete death
Outline: as §1

[4] = test system: ivyleaf morningglory (Ipomoea hederacea, IPOHE); assay: as above; settings: pre-emerge, rated 14 days after application, 0 = no damage, 100 = complete death
Outline: as §1

[5] = test system: johnsongrass (Sorghum halepense, SORHA); assay: as above; settings: pre-emerge, rated 14 days after application, 0 = no damage, 100 = complete death
Outline: as §1

[6] = test system: lambsquarters (Chenopodium album, CHEAL); assay: as above; settings: pre-emerge, rated 14 days after application, 0 = no damage, 100 = complete death
Outline: as §1

[7] = test system: large crabgrass (Digitaria sanguinalis, DIGSA); assay: as above; settings: pre-emerge, rated 14 days after application, 0 = no damage, 100 = complete death
Outline: as §1

[8] = test system: sicklepod (Cassia obtusifolia, CASOB); assay: as above; settings: pre-emerge, rated 14 days after application, 0 = no damage, 100 = complete death
Outline: as §1

[9] = test system: velvetleaf (Abutilon theophrasti, ABUTH); assay: as above; settings: pre-emerge, rated 14 days after application, 0 = no damage, 100 = complete death
Outline: as §1

[10] = test system: field corn (Zea mays L., var. Dekalb 535, CORN); assay: Pre-emerge test, crop safety; settings: pre-emerge, rated 14 days after application, 0 = no damage, 100 = complete death
Outline: (§2)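 Applied at 15–1000 g ai/ha from acetone in 187 l/ha spray volume. Post-emergence applications included 0.25% v/v non-ionic surfactant and reached plants sown 8–21 days before. Pre-emergence applications were incorporated by surface watering. Efficacy or crop damage was rated on a 0–100 scale after 14 days.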

[11] = test system: upland rice (Oryza sp., var. Tebonnet, RICE); assay: Pre-emerge test, crop safety; settings: pre-emerge, rated 14 days after application, 0 = no damage, 100 = complete death
Outline: as §2

[12] = test system: barnyardgrass (Echinochloa crus-galli, ECHCG); assay: Post-emerge test, greenhouse herbicide activity screening; settings: phytotoxicity rating 0-100 (0 no damage, 100 complete death), 14 days after application
Outline: (§3)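 Fourteen days after spraying, crop and weed injury was graded visually from 0, no effect, to 100, every plant dead. Test substances were dissolved in acetone and applied at 15–1000 g ai/ha with a flat-fan nozzle. Application was either pre-emergence, one day after sowing, or post-emergence at the 2–3 leaf stage.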

[13] = test system: green foxtail (Setaria viridis, SETVI); assay: as above; settings: phytotoxicity rating 0-100 (0 no damage, 100 complete death), 14 days after application
Outline: as §3

[14] = test system: ivyleaf morningglory (Ipomoea hederacea, IPOHE); assay: as above; settings: phytotoxicity rating 0-100 (0 no damage, 100 complete death), 14 days after application
Outline: as §3

[15] = test system: johnsongrass (Sorghum halepense, SORHA); assay: as above; settings: phytotoxicity rating 0-100 (0 no damage, 100 complete death), 14 days after application
Outline: as §3

[16] = test system: lambsquarters (Chenopodium album, CHEAL); assay: as above; settings: phytotoxicity rating 0-100 (0 no damage, 100 complete death), 14 days after application
Outline: as §3

[17] = test system: large crabgrass (Digitaria sanguinalis, DIGSA); assay: as above; settings: phytotoxicity rating 0-100 (0 no damage, 100 complete death), 14 days after application
Outline: as §3

[18] = test system: redroot pigweed (Amaranthus retroflexus, AMARE); assay: as above; settings: phytotoxicity rating 0-100 (0 no damage, 100 complete death), 14 days after application
Outline: as §3

[19] = test system: sicklepod (Cassia obtusifolia, CASOB); assay: as above; settings: phytotoxicity rating 0-100 (0 no damage, 100 complete death), 14 days after application
Outline: as §3

[20] = test system: velvetleaf (Abutilon theophrasti, ABUTH); assay: as above; settings: phytotoxicity rating 0-100 (0 no damage, 100 complete death), 14 days after application
Outline: as §3

[21] = test system: field corn (Zea mays L., var. Dekalb 535, CORN); assay: Post-emerge test, crop safety; settings: phytotoxicity rating 0-100 (0 no damage, 100 complete death), 14 days after application
Outline: as §1

[22] = test system: upland rice (Oryza sp., var. Tebonnet, RICE); assay: Post-emerge test, crop safety; settings: phytotoxicity rating 0-100 (0 no damage, 100 complete death), 14 days after application
Outline: as §1

CCOC(=O)COc1c(Cl)cc(F)c(-n2c(=O)cc(C(F)(F)F)n(C)c2=O)c1N [Compound 1-59]
Pre-emerge Herbicidal Activity AMARE (phytotoxicity rating, scale 0-100) ([1]; 63 g ai/ha): 100
Pre-emerge Herbicidal Activity AMARE (phytotoxicity rating, scale 0-100) ([1]; 250 g ai/ha): 100
Pre-emerge Herbicidal Activity ECHCG (phytotoxicity rating, scale 0-100) ([2]; 63 g ai/ha): 0
Pre-emerge Herbicidal Activity ECHCG (phytotoxicity rating, scale 0-100) ([2]; 250 g ai/ha): 70
Pre-emerge Herbicidal Activity SETVI (phytotoxicity rating, scale 0-100) ([3]; 63 g ai/ha): 30
Pre-emerge Herbicidal Activity SETVI (phytotoxicity rating, scale 0-100) ([3]; 250 g ai/ha): 90
Pre-emerge Herbicidal Activity IPOHE (phytotoxicity rating, scale 0-100) ([4]; 63 g ai/ha): 100
Pre-emerge Herbicidal Activity IPOHE (phytotoxicity rating, scale 0-100) ([4]; 250 g ai/ha): 100
Pre-emerge Herbicidal Activity SORHA (phytotoxicity rating, scale 0-100) ([5]; 63 g ai/ha): 30
Pre-emerge Herbicidal Activity SORHA (phytotoxicity rating, scale 0-100) ([5]; 250 g ai/ha): 85
Pre-emerge Herbicidal Activity CHEAL (phytotoxicity rating, scale 0-100) ([6]; 63 g ai/ha): 100
Pre-emerge Herbicidal Activity CHEAL (phytotoxicity rating, scale 0-100) ([6]; 250 g ai/ha): 100
Pre-emerge Herbicidal Activity DIGSA (phytotoxicity rating, scale 0-100) ([7]; 63 g ai/ha): 30
Pre-emerge Herbicidal Activity DIGSA (phytotoxicity rating, scale 0-100) ([7]; 250 g ai/ha): 90
Pre-emerge Herbicidal Activity CASOB (phytotoxicity rating, scale 0-100) ([8]; 63 g ai/ha): 30
Pre-emerge Herbicidal Activity CASOB (phytotoxicity rating, scale 0-100) ([8]; 250 g ai/ha): 80
Pre-emerge Herbicidal Activity ABUTH (phytotoxicity rating, scale 0-100) ([9]; 63 g ai/ha): 100
Pre-emerge Herbicidal Activity ABUTH (phytotoxicity rating, scale 0-100) ([9]; 250 g ai/ha): 100
Pre-emerge crop damage CORN (phytotoxicity rating, scale 0-100) ([10]; 63 g ai/ha): 30
Pre-emerge crop damage CORN (phytotoxicity rating, scale 0-100) ([10]; 250 g ai/ha): 90
Pre-emerge crop damage RICE (phytotoxicity rating, scale 0-100) ([11]; 63 g ai/ha): 30
Pre-emerge crop damage RICE (phytotoxicity rating, scale 0-100) ([11]; 250 g ai/ha): 70
Post-emerge Herbicidal Activity ECHCG ([12]; 63 g ai/ha): 30
Post-emerge Herbicidal Activity ECHCG ([12]; 250 g ai/ha): 80
Post-emerge Herbicidal Activity SETVI ([13]; 63 g ai/ha): 10
Post-emerge Herbicidal Activity SETVI ([13]; 250 g ai/ha): 70
Post-emerge Herbicidal Activity IPOHE ([14]; 63 g ai/ha): 100
Post-emerge Herbicidal Activity IPOHE ([14]; 250 g ai/ha): 100
Post-emerge Herbicidal Activity SORHA ([15]; 63 g ai/ha): 10
Post-emerge Herbicidal Activity SORHA ([15]; 250 g ai/ha): 50
Post-emerge Herbicidal Activity CHEAL ([16]; 63 g ai/ha): 100
Post-emerge Herbicidal Activity CHEAL ([16]; 250 g ai/ha): 100
Post-emerge Herbicidal Activity DIGSA ([17]; 63 g ai/ha): 0
Post-emerge Herbicidal Activity DIGSA ([17]; 250 g ai/ha): 40
Post-emerge Herbicidal Activity AMARE ([18]; 63 g ai/ha): 95
Post-emerge Herbicidal Activity AMARE ([18]; 250 g ai/ha): 100
Post-emerge Herbicidal Activity CASOB ([19]; 63 g ai/ha): 40
Post-emerge Herbicidal Activity CASOB ([19]; 250 g ai/ha): 100
Post-emerge Herbicidal Activity ABUTH ([20]; 63 g ai/ha): 100
Post-emerge Herbicidal Activity ABUTH ([20]; 250 g ai/ha): 100
Post-emerge Herbicidal Activity CORN (crop damage) ([21]; 63 g ai/ha): 45
Post-emerge Herbicidal Activity CORN (crop damage) ([21]; 250 g ai/ha): 80
Post-emerge Herbicidal Activity RICE (crop damage) ([22]; 63 g ai/ha): 30
Post-emerge Herbicidal Activity RICE (crop damage) ([22]; 250 g ai/ha): 60

From patent publication US6355799B1, “Substituted benzene compounds, process for their preparation, and herbicidal and defoliant compositions containing them” (ISK Americas Incorporated, priority 1997, dated 2002)
